Data reported in paper PMC9030833, “Molecular Modeling and Experimental Evaluation of Non-Chiral Components of Bergamot Essential Oil with Inhibitory Activity against Human Monoamine Oxidases” (Molecules, 2022).

Columns and labels:
[1] = target: T1, hMAO-A (Homo sapiens, UniProt P21397); experiment: In vitro hMAO-A inhibition, spectrophotometric Kynuramine deamination assay; type: biochemical
T1 construct: purchased Sigma-Aldrich; host or cells: insect cells (BTI-TN-5B1-4), recombinant baculovirus
T1 sequence (P21397 1-527): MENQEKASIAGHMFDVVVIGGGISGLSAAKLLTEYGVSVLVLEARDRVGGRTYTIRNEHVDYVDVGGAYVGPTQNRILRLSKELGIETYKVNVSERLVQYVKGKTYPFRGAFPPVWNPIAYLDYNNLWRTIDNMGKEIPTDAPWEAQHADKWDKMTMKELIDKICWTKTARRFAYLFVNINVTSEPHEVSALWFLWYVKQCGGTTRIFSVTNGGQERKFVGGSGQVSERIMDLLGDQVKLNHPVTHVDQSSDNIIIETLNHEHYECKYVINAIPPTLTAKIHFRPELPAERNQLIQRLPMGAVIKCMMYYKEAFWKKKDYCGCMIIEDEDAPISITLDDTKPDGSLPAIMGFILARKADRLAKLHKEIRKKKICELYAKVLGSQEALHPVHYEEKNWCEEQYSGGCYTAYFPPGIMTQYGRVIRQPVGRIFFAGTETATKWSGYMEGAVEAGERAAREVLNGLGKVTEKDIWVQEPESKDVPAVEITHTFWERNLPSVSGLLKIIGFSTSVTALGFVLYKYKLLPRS
Description: (§1) To this end, a spectrophotometric method based on the oxidative deamination of Kynuramine by recombinant hMAO-A or hMAO-B was used.
(§2) The inhibitory activity of Bergamottin on hMAO-A and hMAO-B was studied using an experimental protocol described elsewhere. The hMAO inhibitory activity was assessed in microsomal MAO isoforms prepared from insect cells (BTI-TN-5B1-4) infected with recombinant baculovirus containing cDNA inserts for hMAO-A or hMAO-B, and by measuring the enzymatic conversion rates of Kynuramine into 4-hydroxyquinoline. […] All assays were performed in sodium phosphate buffer solution 50 mM pH 7.4.
(§3) Then, the reaction was started with the addition of hMAO-A or hMAO-B. Initial velocities were determined spectrophotometrically in a microplate reader (BioTek Synergy HT from BioTek Instruments, Winooski, VT, USA) at 37 °C by measuring the formation of 4-hydroxyquinoline at 316 nm, over a period of at least 30 min (interval of 1 min). Data were analyzed using GraphPad PRISM version 6 for Windows (GraphPad Software®, San Diego, CA, USA). […] IC50 values were obtained from dose–response curves and were expressed as mean ± standard deviation. IC50 values were determined from at least three independent experiments, each performed in triplicate. […]

[2] = target: T2, hMAO-B (Homo sapiens, UniProt P27338); experiment: In vitro hMAO-B inhibition, spectrophotometric Kynuramine deamination assay; type: biochemical
T2 construct: purchased Sigma-Aldrich; host or cells: insect cells (BTI-TN-5B1-4), recombinant baculovirus
T2 sequence (P27338 1-520): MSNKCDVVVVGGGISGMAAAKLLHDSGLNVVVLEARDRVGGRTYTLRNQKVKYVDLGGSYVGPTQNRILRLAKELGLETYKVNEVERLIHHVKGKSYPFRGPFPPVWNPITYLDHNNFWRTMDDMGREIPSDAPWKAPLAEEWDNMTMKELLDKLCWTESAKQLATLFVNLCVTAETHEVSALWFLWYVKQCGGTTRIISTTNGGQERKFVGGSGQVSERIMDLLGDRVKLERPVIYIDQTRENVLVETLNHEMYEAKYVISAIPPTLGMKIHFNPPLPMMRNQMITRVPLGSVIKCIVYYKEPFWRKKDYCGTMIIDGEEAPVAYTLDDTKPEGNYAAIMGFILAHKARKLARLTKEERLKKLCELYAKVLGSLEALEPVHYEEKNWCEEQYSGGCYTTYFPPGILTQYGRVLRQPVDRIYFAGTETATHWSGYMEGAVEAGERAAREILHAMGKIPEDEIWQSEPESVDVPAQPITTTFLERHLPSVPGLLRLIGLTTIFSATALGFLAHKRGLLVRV
Description: as §1, §2, §3

IC50 [1]: 9.25 ± 0.91 µM
IC50 ([2]; recombinant hMAO-B, Kynuramine substrate): 0.291 µM
SI (selectivity index) ([2]; selectivity for hMAO-B over hMAO-A from the IC50 values): 31.8
Compound: CC(C)=CCC/C(C)=C/COc1c2ccoc2cc2oc(=O)ccc12 [Bergamottin]
